Measured values taken from patent US12226410B2, “Methods for enhancing cellular clearance of pathological molecules via activation of the cellular protein ykt6” (NORTHWESTERN UNIVERSITY, priority 2019, dated 2025).

Key:
ykt6 = assay: FTI treatment of wild-type mice: ykt6 membrane distribution and SNARE complexes in cortex; format: in vivo; conditions: daily i.p. 0.9 mg/kg, 14 days
Description: FIGS. 15A, 15B, 15C, 15D, 15E, and 15F. FTI treatment of wild-type mice enhances ykt6 SNARE complexes, lysosomal activity, and reduces a-syn. 15A) Wild-type mice (C57Bl/6) were i.p. injected daily with FTI for 14 days at 0.9 mg/kg and compared to vehicle injected mice. Extracts from the cortex were analyzed for cytosolic (cyt) and membrane (mem) distribution of ykt6 (veh, n=5; FTI, n=6). 15B) Representative gel filtration/western blot analysis of cortical extracts of veh or FTI injected wild-type mice. Inputs are shown on the left. NSE indicates equal column loading. 15C) Quantification of ykt6 and STX5 complexes (ca. 120A) from gel filtration analysis in C (n=4 mice). Fraction 1 corresponds to complexes at 120A, while fractions 7-9 correspond to ykt6 monomers at 22-14 A. 15D) The levels of post ER (endo H resistant) GCase were analyzed by western blot and post ER/ER ratios were quantified from the cortex of FTI treated mice (veh, n=5; FTI, n=6). 15E) GCase activity was assessed in cortical lysates and normalized to total protein (veh, n=4; FTI, n=6). 15F) a-Syn levels were quantified from cytosolic or membrane isolated fractions from the cortex of wild-type FTI treated mice (veh, n=4; FTI, n=6). For all quantifications, values are the mean+/−SEM, *p<0.05.
Separation of lysates into cytosol and membrane fractions. Cell cultures from either a 10 cm dish (SH-SY5Y) or 6 well (iPSn) were scraped in cold PBS and pelleted by centrifugation at 400×g, 5 min, 4° C. The supernatant was discarded and cell pellets were homogenized in 200-400 ul of cold PBS containing protease inhibitor cocktail mix (1 mM phenylmethanesulfonyl fluoride (PMSF), 50 mM NaF, 2 mM Na orthovanadate, and a protease inhibitor cocktail (Roche diagnostics, http://www.roche.com, #11-836-170-001)) using a Teflon homogenizer in a conical glass vessel for 20-40 times, using a motor driven spindle at 4000 rpm (GlasCol, https://glascol.com/homogenizers). […] Fractions were then analyzed by western blot analysis as described below. The samples were not analyzed in a blinded manner. […]

DASYN53 mice = assay: Behavioral analysis of DASYN53 mice (body weight, Rotarod); format: in vivo; conditions: i.p. 0.9 mg/kg
Text: FIGS. 8A, 8B, 8C, 8D, 8E, and 8F. FTI treatment enhances GCase activity and reduces pathological a-syn in transgenic mice. 8A) GCase activity in the midbrain of FTI (LNK-754)-treated DASYN53 mice (treated as in FIG. 7) (n=4, veh; n=5, FTI). 8B & 8C) Quantification of soluble and insoluble a-syn from midbrains of FTI-treated DASYN53 mice normalized to total protein (CBB). Syn211 is selective for human (hu) a-syn; C20 and syn303 detect mouse (ms) and hu a-syn, (n=3, nTg+Veh; n=4, DASYN53+veh; n=5 DASYN53+FTI). 8D) Midbrain TH levels were quantified by western blot of FTI-treated DASYN53 mice (n=3). 8E) Body weight of FTI-treated DASYN53 mice (n=9, nTg+Veh; n=7, DASYN53+veh; n=7 DASYN53+FTI). 8F) Rotarod test of FTI-treated DASYN53 mice (n=12, nTg+Veh; n=7, DASYN53+veh; n=7 DASYN53+FTI). Values are the mean+/−SEM. *p<0.05, **p<0.01, and *** p<0.001. Student's t-test, panel A; ANOVA with Tukey's posthoc test, panels B-F.
Behavioral analysis of DASYN53 mice. These assays were done as previously described (Tsika et al., 2010). […] Balance and motor behavior testing was done at the end of the injection protocol (between days 24-26) and determined using a Rotarod apparatus (Ugo Basile) with acceleration from 4-40 rpm over a 300 second period. Latency to fall was recorded over 4 trials per mouse, and the data were presented as the average of 3 trials (excluding the first trial as a training session). […]

SMILES: C#Cc1cccc(-c2cc(=O)n(C)c3ccc([C@](O)(c4ccc(Cl)cc4)c4cncn4C)cc23)c1 [LNK-754]
- levels of membrane associated ykt6 and STX5 (ykt6): increase the levels of membrane associated ykt6 and STX5
- sec22b (ykt6): no change
- ykt6 distribution by SEC (monomers vs complexes) (ykt6): shifted its distribution from monomers into high molecular weight complexes
- reduction in body weight of DASYN53 mice (DASYN53 mice; day 23-24): rescued
- reduction in motor performance (Rotarod) of DASYN53 mice (DASYN53 mice; days 24-26): rescued
